From patent US20250205176A1, “SOLID COMPOSITION CONTAINING FORM II-TYPE CRYSTAL OF REDUCED COENZYME Q10” (KANEKA CORPORATION, priority 2022, published 2025)

Test: Reference Example: half-life period and stabilization degree from QH residual rate after 14 days storage
Format: physicochemical
Conditions: for Half-life Period: number of days required for the QH residual rate to reach 50%, from storage at 25° C. and 60% RH for 14 days
Method: The reduced coenzyme Q10 Form I crystal (Form I-crystal), the particulate solid composition produced using the reduced coenzyme Q10 Form I crystal in the same manner as in Comparative Example 1 (Form I-stabilized composition), the reduced coenzyme Q10 Form II crystal (Form II-crystal), and the particulate solid composition produced using the reduced coenzyme Q10 Form II crystal in the same manner as in Example 1 (A-1) (Form II-stabilized composition) were stored at 25° C. and 60% RH for 14 days. From the QH residual rate after storage, the half-life period, which is the number of days required for the QH residual rate to reach 50%, and the stabilization degree, which is the ratio of the half-life period of the stabilized composition to the half-life period of each crystal, were determined and shown in Table 17.

| SMILES | Half-life Period [days] | stability relative to the Form I crystal (25° C. and 60% RH) [times] |
| --- | --- | --- |
| COc1c(O)c(C)c(C/C=C(\C)CC/C=C(\C)CC/C=C(\C)CC/C=C(\C)CC/C=C(\C)CC/C=C(\C)CC/C=C(\C)CC/C=C(\C)CC/C=C(\C)CCC=C(C)C)c(O)c1OC [Form I - crystal, reduced coenzyme Q10] | 14 |  |
| COc1c(O)c(C)c(C/C=C(\C)CC/C=C(\C)CC/C=C(\C)CC/C=C(\C)CC/C=C(\C)CC/C=C(\C)CC/C=C(\C)CC/C=C(\C)CC/C=C(\C)CCC=C(C)C)c(O)c1OC [Form II - crystal, reduced coenzyme Q10] | 189 | 14 |
